Measurements as given in PubChem BioAssay (NCI).
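Dose response: 5 concentrations. Exposure: 48 h. Format: 96-well plates. Endpoint: linear interpolation; highest concentration if not reached. TGI: total growth inhibition.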

Legend:
Assay in all cases: NCI tumour cell line growth inhibition, 48 h
OVCAR-4 ovarian = tested on: OVCAR-4 ovarian
RPMI-8226 leukemia = tested on: RPMI-8226 leukemia
A549 NSCLC = tested on: A549 NSCLC
HT29 colon = tested on: HT29 colon
UACC-257 melanoma = tested on: UACC-257 melanoma
HL-60(TB) leukemia = tested on: HL-60(TB) leukemia
CCRF-CEM leukemia = tested on: CCRF-CEM leukemia
A498 renal = tested on: A498 renal
OVCAR-5 ovarian = tested on: OVCAR-5 ovarian
SF-295 CNS = tested on: SF-295 CNS
RXF 393 renal = tested on: RXF 393 renal
UACC-62 melanoma = tested on: UACC-62 melanoma
SNB-19 CNS = tested on: SNB-19 CNS
EKVX NSCLC = tested on: EKVX NSCLC
COLO 205 colon = tested on: COLO 205 colon
KM12 colon = tested on: KM12 colon
PC-3 prostate = tested on: PC-3 prostate
NCI-H460 lung = tested on: NCI-H460 lung
MDA-MB-231 breast = tested on: MDA-MB-231 breast
U251 CNS = tested on: U251 CNS
TK-10 renal = tested on: TK-10 renal
MCF7 breast = tested on: MCF7 breast
LOX IMVI melanoma = tested on: LOX IMVI melanoma
SF-268 CNS = tested on: SF-268 CNS
SK-MEL-5 melanoma = tested on: SK-MEL-5 melanoma
MALME-3M melanoma = tested on: MALME-3M melanoma
SN12C renal = tested on: SN12C renal
786-0 renal = tested on: 786-0 renal
T-47D breast = tested on: T-47D breast
M14 melanoma = tested on: M14 melanoma
OVCAR-8 ovarian = tested on: OVCAR-8 ovarian
SR leukemia = tested on: SR leukemia
SNB-75 CNS = tested on: SNB-75 CNS
SK-OV-3 ovarian = tested on: SK-OV-3 ovarian
HS 578T breast = tested on: HS 578T breast
HOP-62 NSCLC = tested on: HOP-62 NSCLC
SK-MEL-2 melanoma = tested on: SK-MEL-2 melanoma
UO-31 renal = tested on: UO-31 renal
ACHN renal = tested on: ACHN renal
IGROV1 ovarian = tested on: IGROV1 ovarian
SW-620 colon = tested on: SW-620 colon
OVCAR-3 ovarian = tested on: OVCAR-3 ovarian
DU-145 prostate = tested on: DU-145 prostate
HCC-2998 colon = tested on: HCC-2998 colon
CAKI-1 renal = tested on: CAKI-1 renal
NCI-H226 lung = tested on: NCI-H226 lung
MOLT-4 leukemia = tested on: MOLT-4 leukemia
SK-MEL-28 melanoma = tested on: SK-MEL-28 melanoma
MDA-N = tested on: MDA-N
MDA-MB-435 = tested on: MDA-MB-435
NCI-H23 lung = tested on: NCI-H23 lung
NCI/ADR-RES ovarian = tested on: NCI/ADR-RES ovarian
HOP-92 NSCLC = tested on: HOP-92 NSCLC
HCT-15 colon = tested on: HCT-15 colon
BT-549 breast = tested on: BT-549 breast
K-562 leukemia = tested on: K-562 leukemia
HCT-116 colon = tested on: HCT-116 colon
DMS 273 small cell lung = tested on: DMS 273 small cell lung
NCI-H522 lung = tested on: NCI-H522 lung
SNB-78 CNS = tested on: SNB-78 CNS
KM20L2 colon = tested on: KM20L2 colon
LXFL 529 NSCLC = tested on: LXFL 529 NSCLC
DLD-1 colon = tested on: DLD-1 colon
SF-539 CNS = tested on: SF-539 CNS
DMS 114 small cell lung = tested on: DMS 114 small cell lung
M19-MEL melanoma = tested on: M19-MEL melanoma
HOP-18 NSCLC = tested on: HOP-18 NSCLC

Measured: TGI

Cc1ccc(/C=N/NS(=O)(=O)c2ccc(/C=C3\NC(=O)NC3=O)cc2)cc1
91.1 µM: HOP-62 NSCLC
57.7 µM: SF-268 CNS
81.6 µM: HS 578T breast
47.7 µM: SNB-75 CNS
not listed: DMS 273 small cell lung | NCI-H522 lung | SNB-78 CNS | KM20L2 colon | LXFL 529 NSCLC | DLD-1 colon | SF-539 CNS | DMS 114 small cell lung | M19-MEL melanoma | HOP-18 NSCLC
> 100 µM: all other assays above

Cc1cc(=O)[nH]c(NNC(C#N)c2ccco2)n1 (centres undefined)
not listed: A498 renal | SNB-19 CNS | EKVX NSCLC | PC-3 prostate | MDA-MB-231 breast | MCF7 breast | T-47D breast | HS 578T breast | DU-145 prostate | HCC-2998 colon | MDA-N | MDA-MB-435 | NCI/ADR-RES ovarian | BT-549 breast
> 100 µM: all other assays above

COc1ccc(C2S/C(=C\c3ccccc3)C(=O)N2NC(=O)Cc2ccccc2)cc1 (centres undefined)
not listed: SNB-19 CNS | EKVX NSCLC | PC-3 prostate | MDA-MB-231 breast | MCF7 breast | T-47D breast | HS 578T breast | OVCAR-3 ovarian | DU-145 prostate | HCC-2998 colon | MDA-N | MDA-MB-435 | NCI/ADR-RES ovarian | BT-549 breast | SNB-78 CNS | KM20L2 colon | DMS 114 small cell lung
> 100 µM: all other assays above

Cc1cc(O)c2c(c1)CC(O)C1=C2C(=O)c2c(O)ccc(OC3CC(O)C(OC4CC(OC5CCC(O)C(C)O5)C(O)C(C)O4)C(C)O3)c2C1=O (centres undefined)
4.27 µM: EKVX NSCLC
2.78 µM: SK-MEL-5 melanoma
3.25 µM: SN12C renal
8.38 µM: T-47D breast
12.8 µM: OVCAR-5 ovarian
2.93 µM: UACC-257 melanoma
3.96 µM: PC-3 prostate
3.88 µM: NCI-H23 lung
2.95 µM: COLO 205 colon | ACHN renal
3.43 µM: SF-268 CNS
2.16 µM: OVCAR-3 ovarian
2.1 µM: MALME-3M melanoma
3.14 µM: SW-620 colon
7.73 µM: SNB-75 CNS
3.22 µM: RPMI-8226 leukemia | U251 CNS
3.47 µM: 786-0 renal | HCT-116 colon
3.74 µM: MDA-N
3.04 µM: M14 melanoma
2.89 µM: LOX IMVI melanoma
1.75 µM: MOLT-4 leukemia
3.77 µM: HOP-62 NSCLC
3.42 µM: BT-549 breast
3.23 µM: UO-31 renal | CAKI-1 renal
4.85 µM: NCI-H460 lung
2.52 µM: NCI-H522 lung
6.98 µM: K-562 leukemia
3.58 µM: MDA-MB-231 breast | HCC-2998 colon
3.54 µM: HOP-92 NSCLC
6.36 µM: HS 578T breast
3.51 µM: OVCAR-8 ovarian
3.05 µM: UACC-62 melanoma
3.19 µM: DU-145 prostate
3.62 µM: SF-539 CNS
3.02 µM: RXF 393 renal
2.81 µM: SR leukemia
1.68 µM: HL-60(TB) leukemia
4.03 µM: TK-10 renal
2.82 µM: MDA-MB-435
2.9 µM: IGROV1 ovarian
5.6 µM: HT29 colon
7.77 µM: A549 NSCLC
4.91 µM: A498 renal
3.86 µM: SK-MEL-28 melanoma
2.96 µM: MCF7 breast
0.706 µM: CCRF-CEM leukemia
7.47 µM: SF-295 CNS
3.83 µM: SK-MEL-2 melanoma
3.45 µM: OVCAR-4 ovarian
3.38 µM: SNB-19 CNS
3.32 µM: NCI-H226 lung
9.61 µM: NCI/ADR-RES ovarian
4.64 µM: HCT-15 colon
6.71 µM: SK-OV-3 ovarian
4.46 µM: KM12 colon
